Molecular target: T1, Cleavage and Polyadenylation Specificity Factor 3 (CPSF3) (Homo sapiens, UniProt Q9UKF6)
T1 sequence (Q9UKF6 1-459): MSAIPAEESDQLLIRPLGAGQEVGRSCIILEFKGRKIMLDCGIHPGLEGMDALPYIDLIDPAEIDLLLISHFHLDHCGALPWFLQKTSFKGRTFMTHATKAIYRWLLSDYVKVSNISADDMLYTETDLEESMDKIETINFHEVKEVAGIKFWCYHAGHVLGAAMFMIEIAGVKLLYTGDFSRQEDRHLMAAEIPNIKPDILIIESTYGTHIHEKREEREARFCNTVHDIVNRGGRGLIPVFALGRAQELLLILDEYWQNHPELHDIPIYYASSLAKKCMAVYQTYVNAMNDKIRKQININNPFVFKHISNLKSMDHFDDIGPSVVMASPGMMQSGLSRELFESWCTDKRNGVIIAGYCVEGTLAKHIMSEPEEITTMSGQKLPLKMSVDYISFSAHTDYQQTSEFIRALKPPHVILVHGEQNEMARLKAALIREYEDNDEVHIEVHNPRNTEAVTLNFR
Assay: […] Å co-crystal structure
Assay type: binding

Work on `CN1CCN(CCOc2c(Cl)cc(C(=O)N[C@@H](Cc3ccccc3)C(=O)O)c(O)c2Cl)CC1` [compound 2] yielded a Kd of 370 nM.

Reference: article PMC7116157 (Nature chemical biology, 2019)
